Measurements reported in patent publication US20250289826A1, “PLPRO PROTEIN INHIBITOR, AND PREPARATION METHOD AND APPLICATION THEREOF” (priority 2022, published 2025).
“And” between values parts separate entries of the source, which are not always exact repeats. Equal entries are not always repeated.

What was measured:
[1] = tested on: SARS-CoV-2 live virus (Delta strain); assay: microbe, parasite or virus in culture; assay type: cell-based
PLpro = PLpro (Severe acute respiratory syndrome coronavirus 2 (2019-nCoV) (SARS-CoV-2), UniProt P0DTD1); assay: Assay for PLpro inhibitory activity (Ub-AMC fluorescence; single point inhibition test and IC50 determination); assay type: biochemical; conditions: for IC50: fluorescence measured after 15 min of reaction; for inhibition at 1 µM: read-out: inhibition of PLpro (1 μM), 1 μM test compound, 100 nM PLpro, 10 μM Ub-AMC, 37° C. 30 min
[2] = Severe acute respiratory syndrome coronavirus 2, Calu-3, 48 h

## Cc1ccc(N2CC(N(C)C)C2)cc1C(=O)NC1(c2ccc(F)c3ncccc23)CC1 [Example C26]
[1]; 3.125 nM, Calu-3 cells, Delta strain, 48 h, three replicate values
  Inhibition rate/%: 2.076% and 45.3104% and −0.0016%
[1]; 6.25 nM, Calu-3 cells, Delta strain, 48 h, three replicate values
  Inhibition rate/%: 37.9405% and 58.6715% and 67.2927%
[1]; 12.5 nM, Calu-3 cells, Delta strain, 48 h, three replicate values
  Inhibition rate/%: −4.0599% and 50.6792% and 17.0436%
[1]; 25 nM, Calu-3 cells, Delta strain, 48 h, three replicate values
  Inhibition rate/%: −64.656% and 17.2863% and 31.5856%
[1]; 50 nM, Calu-3 cells, Delta strain, 48 h, three replicate values
  Inhibition rate/%: 92.4972% and 64.3219% and 67.0889%
[1]; 100 nM, Calu-3 cells, Delta strain, 48 h, three replicate values
  Inhibition rate/%: 93.9064% and 96.0939%
[1]; 200 nM, Calu-3 cells, Delta strain, 48 h, three replicate values
  Inhibition rate/%: 99.5887% and 99.6848%
[1]; 400 nM, Calu-3 cells, Delta strain, 48 h, three replicate values
  Inhibition rate/%: 99.9327% and 99.8544%
[1]; [2]
  EC50: 36.3 ± 4.11 nM
  EC90: 73.1 ± 7.23 nM
[1]; Severe acute respiratory syndrome coronavirus 2, Calu-3, 48 h, 100 nM, Calu-3 cells, Delta strain, 48 h, three replicate values, read-out: Inhibition rate/%
  inhibition at 0.1 µM: 92.2%
[1]; Severe acute respiratory syndrome coronavirus 2, Calu-3, 48 h, 200 nM, Calu-3 cells, Delta strain, 48 h, three replicate values, read-out: Inhibition rate/%
  inhibition at 0.2 µM: 99.9%
[1]; Severe acute respiratory syndrome coronavirus 2, Calu-3, 48 h, 400 nM, Calu-3 cells, Delta strain, 48 h, three replicate values, read-out: Inhibition rate/%
  inhibition at 0.4 µM: 100%
[1]; in vitro experiment
  inhibition of SARS-CoV-2 live virus infecting human cells (in words): can effectively inhibit SARS-CoV-2 live virus from infecting human cells
PLpro
  IC50: 38.3 ± 5.27 nM
  inhibition at 1 µM: 95.9%

## Cc1ccc(N2CC(N(C)C)C2)cc1C(=O)NC1(c2ccc(C)c3ncccc23)CC1 [Example C75]
PLpro
  IC50: 4.71 ± 1.38 nM
  inhibition at 1 µM: 99.4%

## COc1ccc(C2(NC(=O)c3cc(N4CC(N(C)C)C4)ccc3C)CC2)c2cccnc12 [Example C76]
PLpro
  IC50: 15.9 ± 3.25 nM
  inhibition at 1 µM: 99.6%

## Cc1ccc(N2CC(N(C)C)C2)cc1C(=O)NC1(c2cccc3c2OCCO3)CC1 [Example C77]
PLpro
  inhibition at 1 µM: 63%

## Cc1ccc(N2CC(N(C)C)C2)cc1C(=O)NC1(c2cccc3c2OCO3)CC1 [Example C78]
PLpro
  inhibition at 1 µM: 25.4%

## Cc1ccc(Br)cc1/C=N/C1(c2ccc(F)c3ncccc23)CC1 [Example C79]
PLpro
  inhibition at 1 µM: 16.5%

## Cc1ccc(N2CC(N(C)C)C2)cc1/C=N/C1(c2ccc(F)c3ncccc23)CC1 [Example C80]
PLpro
  inhibition at 1 µM: 11.9%

## Cc1ccc(N2CC(CN)C2)cc1C(=O)NC1(c2ccc(F)c3ncccc23)CC1 [Example C81]
PLpro
  inhibition at 1 µM: 37.1%

## Cc1ccc(N2CC(C(C)(C)N)C2)cc1C(=O)NC1(c2ccc(F)c3ncccc23)CC1 [Example C82]
PLpro
  inhibition at 1 µM: 8.2%

## Cc1ccc(N2CC(CN(C)C)C2)cc1C(=O)NC1(c2ccc(F)c3ncccc23)CC1 [Example C83]
PLpro
  inhibition at 1 µM: 24.2%

## Cc1ccc(N2CC(N(C)C)C2)cc1CNC1(c2ccc(F)c3ncccc23)CC1 [Example C85]
PLpro
  inhibition at 1 µM: 45.7%

## Cc1ccc(N)cc1CNC1(c2ccc(F)c3ncccc23)CC1 [Example C86]
PLpro
  inhibition at 1 µM: 33.5%

## Cc1ccc(N)cc1C(=O)NC1(c2ccc(F)c3ncccc23)CC1 [Example C87]
PLpro
  inhibition at 1 µM: 23.1%

## Cc1ccc(N2CC(N(C)C)C2)cc1C(=O)NC1(c2ccc(N(C)C)c3ccccc23)CC1 [Example C88]
PLpro
  IC50: 175 nM
  inhibition at 1 µM: 96.2%

## Cc1ccc2c(C3(NC(=O)c4cc(N5CC(N(C)C)C5)ccc4C)CC3)ccc(F)c2n1 [Example C89]
PLpro
  IC50: 119 nM
  inhibition at 1 µM: 82%

## [2H]C1([2H])C(N(C)C)C([2H])([2H])N1c1ccc(C)c(C(=O)NC2(c3ccc(F)c4ncccc34)CC2)c1 [Example C90]
PLpro
  IC50: 69.8 nM
  inhibition at 1 µM: 85%

## Cc1ccc(N2CC(N(C)C)C2)cc1C(=O)NC1(c2cccc3c2ccn3C)CC1 [Example C91]
PLpro
  inhibition at 1 µM: 71%
